In ChEMBL document CHEMBL3507680, “University of Dundee, Gates Library screen for HepG2 cell viability” one finds cytotoxicity data, which are given here for 99 molecules.

SMILES strings stand for the structures.

The data set is described as follows: Human HepG2 cell viability assay in 384 well format. The data set is classed as toxicity, cell-based. Also on record: dose 125 nL, time 70.5 hour; concentration not given beside the values. To be noted: HepG2 cells, read-out: Inhibition.
As for `COc1ccc2c(C)c(C(=O)NC3CCCOC3)oc2c1` (centres undefined), the cytotoxicity at 70.5 h was -4.44%.
Take `Cc1nc2ccccc2nc1CN1CCCC1Cn1cccn1` (centres undefined): the cytotoxicity at 70.5 h stood at 20.6%.
The same measure for `CS(=O)(=O)C1=C(O)C(=O)N(c2ccccc2)C1c1ccccc1` (centres undefined): -4.58%.
Regarding `CN(C)C(=O)CNC(=O)c1ccc2ccc(N(C)CC3CC3)n2c1`, the cytotoxicity at 70.5 h is -12.4%.
Turning to `CS(=O)(=O)N1CCCC(C(=O)Nc2cnn(Cc3ccc(Cl)cc3)c2)C1` (centres undefined), the cytotoxicity at 70.5 h turned out to be 0.541%.
Under `CCNC(=O)[C@@H]1C[C@@H](NC(=O)CSC)CN1Cc1ccncc1` stands -10.5%.
With `Cc1ccsc1C(=O)N(C)Cc1ccncc1`, the cytotoxicity at 70.5 h was -7.89%.
The same measure for `O=C(c1ccc(-n2cnnc2)cc1)N1CCCC(n2ccnc2)C1` (centres undefined): -8.88%.
The same measure for `COCCn1ccc(NC(=O)Nc2cccnc2)n1`: -2.62%.
With `Cn1nc(-c2ccccc2NC(=O)c2cncc(Br)c2)ccc1=O`, the cytotoxicity at 70.5 h was determined as 15.4%.
The same measure for `COc1ccc(OC)c(-n2cnnc2CN)c1`: -2.21%; for `CCN1CC(C(=O)NCc2cccc(SC)c2)CC1=O` (centres undefined): 18%.
Consider `CC(C)c1nnc(NC(=O)Cc2ccc(F)cc2)[nH]1`, for which the cytotoxicity at 70.5 h was -13.1%.
Turning to `CNc1nc2c(s1)C(c1cccc(Cl)c1Cl)CC(=O)N2` (centres undefined), the cytotoxicity at 70.5 h is -8.56%.
On to `Cn1ccnc1CC1CCCN(Cc2noc(C3CC3)n2)C1` (centres undefined), for which the cytotoxicity at 70.5 h is -9.18%.
For `CCCNC(=O)NC(C)c1ccccn1` (centres undefined), the cytotoxicity at 70.5 h was -11.1%.
For the molecule `CC1(C)CNC(=O)c2nc(-c3nnc(-c4ccccc4)[nH]3)[nH]c2C1`, the cytotoxicity at 70.5 h stood at 0.339%.
Under `NC(=O)CN1CCCN(C(=O)COc2cccc(F)c2)CC1` stands -25.4%; under `O=C1c2cnc(N3CCCCC3)nc2CN1c1ccc2c(c1)OCO2`, 16.4%; under `O=C(c1ccn(-c2ccc(F)cc2)n1)N1CCCC(n2ccnc2)C1` (centres undefined), -6.02%.
The same measure for `CS(=O)(=O)Cc1ccc(CNC(=O)N2CCC(C(N)=O)C2)cc1` (centres undefined): -1.33%; for `CN(Cc1cc[nH]n1)C(=O)c1cn(Cc2c(F)cccc2F)nn1`: -8.9%; for `Cc1cnn(CCNCc2cc(-c3ccccc3)no2)c1`: 7.59%.
Consider `CCn1nc(C)c(CCNC(=O)c2coc(CN3CCOCC3)c2)c1C`, for which the cytotoxicity at 70.5 h stood at 0.862%.
The same measure for `Cc1cccc(CN2CCC[C@@H]3CN(C(=O)c4ccco4)C[C@@H]32)n1`: -7.63%.
With `CCN(CC)C(=O)c1nc2c(s1)CCN(C(=O)CCC(=O)OC)CC2`, the cytotoxicity at 70.5 h stood at 3.92%.
Consider `COc1cccc(C2CCCN2C(=O)CC2=CSC3=NCCCN23)c1` (centres undefined), for which the cytotoxicity at 70.5 h is -12%.
Under `Cc1cc(-n2nnc(C(=O)O)c2-c2ccncc2)ccc1F` stands -20%; under `COc1cc2c(nn1)CCN(Cc1nnc(Cc3ccccc3)o1)C2`, -3.6%.
With `Cn1ncc2c(N3CCCC4(CCNC4)C3)nc(C(C)(C)C)nc21` (centres undefined), the cytotoxicity at 70.5 h is -11.5%.
Take `Cc1n[nH]c(C)c1C1COCCN1C(=O)c1ccccc1` (centres undefined): the cytotoxicity at 70.5 h is -8.5%.
Take `CCCc1n[nH]c(C2CN(C(=O)c3ccc(C)[nH]c3=O)CCO2)n1` (centres undefined): the cytotoxicity at 70.5 h worked out at 15.4%.
Under `Cc1ccc2nc(CN3CCN(C4CCCC4)C(=O)C3)cc(O)c2c1` stands 9.29%.
For `Cc1cc(C(=O)N2CCC3(CC2)CC(c2cccnc2)C(=O)N3)no1` (centres undefined), the cytotoxicity at 70.5 h came out at 1.95%.
On to `O=C1N(C2CCCCC2)CCCC12CCN(S(=O)(=O)c1cccnc1)C2` (centres undefined), for which the cytotoxicity at 70.5 h is -5.02%.
As to `COc1ccc(CC(=O)N2CCCCC2Cn2cccn2)cc1` (centres undefined), the cytotoxicity at 70.5 h was -3.73%.
In the case of `CC(=O)Cn1nc(-c2ccccc2F)ccc1=O`, the cytotoxicity at 70.5 h was -3.88%.
Take `Cc1ccc(C2CSCCN2C(=O)c2cccs2)o1` (centres undefined): the cytotoxicity at 70.5 h was determined as 19.9%.
As for `Cc1nc(C)n(CC2CCCN(Cc3cc(C#N)ccc3F)C2)n1` (centres undefined), the cytotoxicity at 70.5 h came to 0.508%.
As for `O=C(NCCCOCc1ccco1)c1cccnc1N1CCOCC1`, the cytotoxicity at 70.5 h was determined as 6.19%.
As to `Cc1nc(C)n(CC2CN(Cc3cccc4c3OCCO4)CCO2)n1` (centres undefined), the cytotoxicity at 70.5 h is 1.12%.
`COC(=O)c1ccc(CCn2cnc(C#N)n2)cc1`: the cytotoxicity at 70.5 h was determined as 13.2%.
Under `O=C(NC[C@]12COC[C@H]1CN(Cc1cccs1)C2)c1ccsc1` stands -9.66%; under `CCCN(C)c1ncc2c(n1)N(C)CCN(CC1CC1)C2=O`, -1.69%; under `NCC(=O)N1CCCCC1c1ccc(F)cc1` (centres undefined), -2.07%.
`CCN(CCO)C(=O)C1CCC(=O)N(CCc2cccc(F)c2)C1` (centres undefined): the cytotoxicity at 70.5 h was -1.58%.
For `CCC1c2cccn2CCN1C(=O)c1ccno1` (centres undefined), the cytotoxicity at 70.5 h was -9.21%.
As to `Cc1ccc(S(=O)(=O)NC(=O)CCOCc2ccccc2)s1`, the cytotoxicity at 70.5 h was -10.6%.
As for `O=C1[C@H]2CN(Cc3cccs3)C[C@H]2CN1CCN1CCCC1`, the cytotoxicity at 70.5 h amounted to 12%.
Consider `Cn1cc(CN(Cc2cccc(-n3cccn3)c2)C2CC2)cn1`, for which the cytotoxicity at 70.5 h amounted to 43.4%.
As for `Cc1cc(-c2cnc(NCc3ccccn3)nc2C(C)C)on1`, the cytotoxicity at 70.5 h was -11.7%.
For `NC1(c2nc(-c3cccs3)cc(=O)[nH]2)CCCCC1`, the cytotoxicity at 70.5 h was found to be 7.44%.
`CC[C@H]1CN(C(=O)C(C)(C)C)CC[C@H]1CC(=O)O`: the cytotoxicity at 70.5 h is 7.7%.
Turning to `Cc1ccc(C(C)N(C)Cc2nc3c(cnn3C)c(=O)[nH]2)c(C)c1` (centres undefined), the cytotoxicity at 70.5 h was -4.81%.
On to `CC(C)CN(Cc1nnc(-c2ccco2)o1)CC(C)C`, for which the cytotoxicity at 70.5 h is 2.87%.
Consider `O=C(CC1CCCC1)N1CCCC1c1nc(O)cc(-c2ccccn2)n1` (centres undefined), for which the cytotoxicity at 70.5 h is -1.16%.
Turning to `CC(C)N1[C@H](CN(C)C)C[C@@H]2CN(c3ncc(F)cn3)CC[C@@H]21`, the cytotoxicity at 70.5 h was determined as 6.71%.
Under `CCC(=O)NCC(=O)NC(Cc1ccccc1)c1sccc1C` (centres undefined) stands -2.67%.
Regarding `CSCC(C)N(C)C(=O)c1nn(-c2ccc(F)cc2C)cc1O` (centres undefined), the cytotoxicity at 70.5 h was -10.1%.
In the case of `CCn1ncc(S(=O)(=O)N2CCCC3(CC=CNC3=O)C2)c1C` (centres undefined), the cytotoxicity at 70.5 h is -1.6%.
Under `CCC(O)CNc1nccc(-c2ccc(C)nc2C)n1` (centres undefined) stands -14.6%; under `CCCN1CCN(C(=O)c2cccc3cccnc23)[C@H]2CS(=O)(=O)C[C@H]21`, 25.6%; under `CC1CCc2nc(O)c(C(=O)NCCc3cccs3)cc2C1` (centres undefined), -7.76%.
As for `CN(CCNC(=O)Nc1ccn(C)n1)Cc1ccc(F)cc1`, the cytotoxicity at 70.5 h was -22.5%.
In the case of `CN(Cc1ccccn1)C1CCCN(Cc2noc(C3CC3)n2)C1` (centres undefined), the cytotoxicity at 70.5 h was -8.62%.
The same measure for `CCOCCCn1c(NC(=O)c2cc(C)no2)nc2ccccc21`: 2.27%.
`Cc1cc(NCCCc2c(C)noc2C)nc(N)n1`: the cytotoxicity at 70.5 h was -10.4%.
For `COc1ccc(CN2CCO[C@H]3CN(C4CCCC4)CC[C@H]3C2=O)cc1`, the cytotoxicity at 70.5 h was -1.08%.
Consider `CCN(CC1CN(Cc2ccn(C(C)C)n2)CCO1)c1cccnn1` (centres undefined), for which the cytotoxicity at 70.5 h worked out at 1.41%.
In the case of `CCN(Cc1ccncc1)CC1(O)CCN(C(=O)c2ccccc2C)C1` (centres undefined), the cytotoxicity at 70.5 h was -2.28%.
In the case of `COc1ccccc1-c1cc(C(=O)N2CCCC2)c2cnn(C)c2n1`, the cytotoxicity at 70.5 h is -5.55%.
Under `O=C(NCCn1ccnc1)N1CCN(c2nccs2)CC1` stands 16.8%.
The same measure for `c1coc(CN2CCCn3c(nnc3Cn3cccc3)C2)c1`: -3.91%.
Regarding `CO[C@H]1[C@@H]2CC[C@H]1CN(c1nc(C)nc3ccsc13)C2`, the cytotoxicity at 70.5 h was determined as 19.4%.
Under `CS(=O)(=O)Nc1ccn(Cc2ccc(Br)cc2)n1` stands -8.91%; under `CCN1CCOCC2(CCCN(c3nncs3)C2)C1` (centres undefined), -2.2%; under `CC(NCC(F)(F)F)c1ccc(S(C)(=O)=O)c(F)c1` (centres undefined), 12.5%.
Consider `CS(=O)(=O)NC1(CCc2ccc(NC(=O)C3CC3)nc2)CCCCC1`, for which the cytotoxicity at 70.5 h was 15%.
Under `CNC(=O)N1CCC2(COCc3c(C)nc(NCc4ccco4)nc32)C1` (centres undefined) stands -6.98%.
Turning to `Cc1nc(-c2ccco2)ccc1C(=O)NCC(=O)N1CCCCC1`, the cytotoxicity at 70.5 h was -117%.
For `CN(CC(F)(F)F)C(=O)Cn1cc(NC(=O)C(C)(C)C)cn1`, the cytotoxicity at 70.5 h came out at 3.96%.
Under `O=C(c1sccc1-n1cnnn1)N1CCC2(CCCCC2)CC1` stands 11.8%.
In the case of `Cn1cc(CN2Cc3c(cnn3C)C(COCC3CC3)C2)cn1` (centres undefined), the cytotoxicity at 70.5 h worked out at 26%.
As for `O=C(C1CC1)N(CCc1ccccc1)C1CCOC1` (centres undefined), the cytotoxicity at 70.5 h was -6.28%.
Turning to `COCCOc1ncccc1-c1noc([C@@H]2CCCN2C2CCC2)n1`, the cytotoxicity at 70.5 h was -10.3%.
Consider `CCCn1ccnc1-c1nccn1CCn1cnnc1`, for which the cytotoxicity at 70.5 h is -6.38%.
With `Cc1cc(C(=O)N2CCCC(Cn3cc(C4CC4)nn3)C2)nc(C)n1` (centres undefined), the cytotoxicity at 70.5 h is -13.2%.
The same measure for `Cc1cccc(CNC(=O)C2CCC(=O)N(Cc3ccccc3F)C2)n1` (centres undefined): -9.23%; for `COC[C@@]12CC[C@@H](N3CCOCC3)C[C@H]1CCN(c1ncccc1C)C2`: -0.155%.
In the case of `CCc1nc(C2CCCN2Cc2ccn(C)c(=O)c2)no1` (centres undefined), the cytotoxicity at 70.5 h is -2.34%.
In the case of `CN1CCc2[nH]nc(C(=O)N3CCCC4(CC3)CNC(=O)O4)c2C1` (centres undefined), the cytotoxicity at 70.5 h is -3.37%.
Take `CC(NC(=O)NCc1cccc(CN2CCCC2)c1)c1nccs1` (centres undefined): the cytotoxicity at 70.5 h was -5.42%.
Consider `CCCc1cc(CNC(=O)Cc2cc(C)no2)on1`, for which the cytotoxicity at 70.5 h was 1.19%.
In the case of `CCN(C(=O)NCCc1ccc(C)cc1C)C(C)CS(C)(=O)=O` (centres undefined), the cytotoxicity at 70.5 h is -12.9%.
In the case of `CCC(CC)CN1C[C@@H]2OCCN(Cc3cnn(C)c3)[C@@H]2C1`, the cytotoxicity at 70.5 h is -3.01%.
With `CSc1ccccc1C(=O)N1C[C@H]2CC[C@@H]1CN(C(=O)C1CCC1)C2`, the cytotoxicity at 70.5 h is -4.19%.
Consider `COCC1c2c(cnn2C)CCN1Cc1ccco1` (centres undefined), for which the cytotoxicity at 70.5 h is -0.607%.
As for `Cc1csc2c(N3CCC(Cn4cc(C(C)(C)O)nn4)CC3)ncnc12`, the cytotoxicity at 70.5 h is -9.53%.
Under `CCc1cnc(N2CCCC(CCC(N)=O)C2)nc1` (centres undefined) stands 17.3%.
